The assay addresses human recombinant CRF-1 receptor (Homo sapiens (Human), UniProt P34998). Nature of the assay: CRF-1 receptor antagonism, HTRF cAMP assay in CHO cells in the presence of 1 nM CRF. The assay is classed as cell-based. To be noted: CHO cells expressing human recombinant CRF-1. The protocol:
The CRF-1 or CRF-2a receptor antagonistic activity of the agents of the invention has been determined in vitro in the following assay:
Chinese hamster ovary (CHO) cells expressing either the human recombinant CRF-1 or CRF-2a receptors (Chen et al., Proc Natl Acad Sci USA 90, 8967-8971, 1993; Liaw et al., Endocrinology 137, 72-77, 1996) are propagated in Dulbecco's modified Eagle medium supplemented with 10% foetal calf serum, non-essential amino acids, 100 U/ml penicillin, 100 mg/l streptomycin and 1 g/l geneticin (G418). For cyclic AMP determinations the Homogeneous Time-Resolved Fluoresce (HTRF) cAMP dynamic 2 kit (Cisbio International, France) was used as per manufacturers' instructions. CHO cells, previously cryopreserved, were thawed, centrifuged for 7 mins at 1200 rpm and resuspended in serum free media, then pipetted out onto clear bottomed black tissue culture treated 384-well microtitre plates (Corning Inc, US) at 2,000 cells per well. Compounds of the invention, prepared in DMSO, and subsequently diluted 50 fold in assay buffer (1× Hanks balanced salt solution, 0.2% (w/v) bovine serum albumin, 1.7 mM isobutylmethylxanthine and 10 mM Hepes, pH7.4) are then added onto the cell containing plate where a further 2 fold dilution is performed and incubated for 15 min. Following incubation, buffer containing a 5 times final concentration of agonist is added to the plate and incubated for 30 min. Finally, d2 dye labelled cAMP and cryptate labeled anti-cAMP antibody, both made in lysis buffer, are added to the plate followed by a settling period of 1 hour. During the settling period cAMP produced by the cells competes with the d2 labelled cAMP for the anti-cAMP cryptate. The plate is read on the Pherastar (BMG, Germany). […] Values represented by a change in arbitrary fluorescence units are converted into cAMP concentrations by use of a standard curve the reagents for which are supplied with the kit. […] IC50 values of antagonists are calculated by fitting the percent inhibition of the effect of CRF by increasing concentrations of the antagonists. […]
human recombinant CRF-1 receptor, sequence (P34998 24-415): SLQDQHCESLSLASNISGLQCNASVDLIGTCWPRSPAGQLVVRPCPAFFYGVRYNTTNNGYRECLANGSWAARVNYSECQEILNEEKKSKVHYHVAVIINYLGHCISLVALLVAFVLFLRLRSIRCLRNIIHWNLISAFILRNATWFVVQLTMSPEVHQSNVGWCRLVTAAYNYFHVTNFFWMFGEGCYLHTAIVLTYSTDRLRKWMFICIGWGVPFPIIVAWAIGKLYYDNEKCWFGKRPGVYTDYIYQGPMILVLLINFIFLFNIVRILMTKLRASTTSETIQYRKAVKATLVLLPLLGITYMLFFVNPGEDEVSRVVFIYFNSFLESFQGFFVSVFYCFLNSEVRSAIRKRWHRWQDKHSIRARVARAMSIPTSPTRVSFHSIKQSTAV
Turning to “2-Chloro-N-(2RS-methyl-4-phenylaminomethyl-cyclohexyl)-5-trifluoromethyl-benzamide [Example 16]”, the IC50 was determined as 0.051 µM.
For the compound `Cc1cc(N2CCNC2=O)nn1C[C@H]1CC[C@H](NC(=O)c2cc(C(F)(F)F)ccc2Cl)CC1` [Example 21.5, 2-Chloro-N-{4-[5-methyl-3-(2-oxo-imi-dazolidin-1-yl)-pyrazol-1-ylmethyl]-cyclohexyl}-5-trifluoromethyl-ben zamide], the IC50 came out at 0.157 µM.
For the compound `Cc1nn(C[C@H]2CC[C@H](NC(=O)c3cc(C(F)(F)F)ccc3Cl)CC2)c(C)c1C` [Example 21.11], the IC50 amounted to 0.14 µM.

Usually IC50 stands for the concentration that inhibits the measured activity by half.
